Experimental findings from patent US7968096B2, “Methods and compositions for treating toxoplasma” (priority 2005, dated 2011) are described below.

Format in all cases: cell-based, Toxoplasma gondii
Assay [1] deals with T. gondii. Nature of the assay: Parasite replication rate under bradyzoite differentiation conditions (parasites per PV-cyst, IFA). As to conditions: 4 days, 100 nM GA. The procedure: FIG. 5 is a graph showing that geldanamycin A (GA) affects bradyzoite replication rate. PK strain (an avirulent derivative of the Me49 strain) and ΔUPRT strain (a strain with a stage-specific selectable marker) parasites were grown under bradyzoite differentiation conditions for 4 days in the presence of 100 nM of GA or DMSO. IFAs were carried out with rabbit anti-T. gondii Hsp90 serum. Fluorescent parasites were counted and the number of parasites per parasitophorous vacuole (PV)-cysts was graphed. One hundred PV-cysts were counted. Student t test was performed by Prism3™ program (Graphpad). *p 0.05, **p 0.01. The y-axis represents the number of parasites/PV-cysts.
RH UPRT knock-out parasites can be induced to differentiate into bradyzoites in low CO2, resulting in pyrimidine starvation. […] Bradyzoite induction under this method was assessed and followed by cyst wall detection using the Dolichos biflorus lectin (Boothroyd et al., (1997) Philos Trans R Soc Lond B Biol Sci 352, 1347-1354). […]
GA (InvivoGen, San Diego, Calif.) was dissolved in dimethyl sulfoxide (DMSO) at […]. […] For replication rate studies, the number of parasites per parasitophorous vacuole or cysts (PV-Cyst) was determined for at least 100 PV-Cyst per treatment (GA or DMSO) in replicate experiments. […] Analysis of intracellular localization of Hsp90 was assessed in the same way but using rabbit anti-TgHsp90 serum. […]

Assay [2] concerns T. gondii. The assay can be described thus: Tachyzoite to bradyzoite conversion (P34 marker and Hsp90 subcellular localization by IFA). As to conditions: RH ΔUPRT strain, bradyzoite conditions 4 days, 100 nM GA. The procedure:
FIG. 6 is two graphs showing that GA blocks tachyzoite to bradyzoite conversion. Parasites were grown under bradyzoite differentiation conditions for 4 days in the presence of 100 nM of GA or DMSO. FIG. 6A is RH UPRT knock-out parasites, and FIG. 6B is PK parasites. The y-axes depict the number of parasites/PV cysts. Cytoplasmic (c) and nuclear (n) Hsp90 localization was determined by IFA with rabbit anti-T. gondii Hsp90 serum. Parasites were also stained with the bradyzoite-specific marker p34 and scored as P34 positive (p34+) or negative (p34−). The number of P34−/Hsp90c; P34−/Hsp90c,n; P34+/Hsp90c; and P34+/Hsp90c,n per 100 PV-Cysts was counted at random, in three independent experiments.
RH UPRT knock-out parasites can be induced to differentiate into bradyzoites in low CO2, resulting in pyrimidine starvation. (Bohne et al., (eds) (1997) Stage-specific expression of a selectable marker in T. gondii permits selective inhibition of either tachyzoites or bradyzoites Vol. 88. Mol Biochem Parasitol; Bohne et al., (1997) Mol Biochem Parasitol 88, 115-126). […] Bradyzoite induction under this method was assessed and followed by cyst wall detection using the Dolichos biflorus lectin (Boothroyd et al., (1997) Philos Trans R Soc Lond B Biol Sci 352, 1347-1354). […]

For the next assay, the system named is T. gondii bradyzoites. The assay can be described thus: In vitro transformation of encysted bradyzoites into tachyzoites (P21/SAG1 markers and Hsp90 localization by IFA). The method, then:
Released PK bradyzoites from brain cysts of infected mice were incubated with 100 nM GA or DMSO for 2 hours, washed, inoculated onto a confluent HFF monolayers, and grown under tachyzoite conditions. IFAs were performed at 4 and 24 hours post-inoculation. To identify mature bradyzoites, parasites were stained using a monoclonal anti-p21 antibody, and tachyzoites were stained using rabbit anti-SAG1. […] The y-axis depicts the number of parasites per/PV-cysts, and the x-axis depicts time in hours. […] The y-axis depicts the number of parasites per/PV-cysts, and the x-axis depicts time in hours. Parasites with cytoplasmic Hsp90 were treated with GA (Hsp90c-GA) or DMSO (Hsp90c-DMSO); parasites with cytoplasmic and nuclear Hsp90 were treated with GA (Hsp90c,n-GA) or DMSO (Hsp90n,c-DMSO). 100 PV-Cysts were counted at random in three independent experiments.
Cysts were isolated from brains of mice infected intraperitoneally 4 weeks before with PK or Me49 strain tachyzoites. Cysts were purified by isopycnic centrifugation on a percoll gradient and encysted bradyzoites were freed by trypsin digestion. In the case of GA experiments, free bradyzoites were incubated in culture media with GA […] or DMSO for 2 h, then parasites were pelleted and washed. One hundred thousand bradyzoites were inoculated onto 12 mm coverslips covered with a confluent monolayer of HFFs. Intracellular localization of Hsp90 was followed by IFA after 4 and 24 hours of infection using anti-Hsp90 serum (1:100). Monoclonal antibodies, specific to the tachyzoite surface protein SAG1 or to the bradyzoite specific protein P21 (mAb T84G10), were used to monitor stage conversion.
GA (InvivoGen, San Diego, Calif.) was dissolved in dimethyl sulfoxide (DMSO) at […]. The drug was diluted in normal culture media to the required concentrations prior to use. A range of concentrations from 1 nM to 5 μM were initially assayed to determine an effective concentration for subsequent experiments. DMSO was added in similar concentrations to control slides. For replication rate studies, the number of parasites per parasitophorous vacuole or cysts (PV-Cyst) was determined for at least 100 PV-Cyst per treatment (GA or DMSO) in replicate experiments. To measure the effect of GA on stage conversion, GA was added in bradyzoite induction experiments (as described above), slides were analyzed by IFA, and the number of P34 positive vacuoles was determined in both GA and DMSO treated cultures. Analysis of intracellular localization of Hsp90 was assessed in the same way but using rabbit anti-TgHsp90 serum. In the in vitro transformation of encysted bradyzoites into tachyzoites experiments, parasites were treated with GA (as described above) and then analyzed by IFA counting P21 and […] positive PV-Cysts in treated and control groups. For replication rate studies, the number of parasites per PV/cysts was determined for at least 100 PV-Cyst per treatment in replicate experiments.

Where [3] appears, read: 24 hours, Me49 bradyzoites incubated 2 hours with GA, washed, tachyzoite conditions.
Setting [4] is: GA treated bradyzoites, time point not stated.

The structures appear in SMILES notation.

`COC1=C2C[C@@H](C)C[C@H](OC)[C@H](O)[C@@H](C)/C=C(\C)[C@H](OC(N)=O)[C@@H](OC)/C=C\C=C(/C)C(=O)NC(=CC1=O)C2=O` [GA, geldanamycin A]: in the assay on T. gondii [1] (PK strain), the “reduction of parasite growth compared to DMSO controls” value is on record as ~3 fold. Moreover, in the assay with T. gondii [1] (RH strain), the “reduction of parasite growth compared to DMSO controls” value is listed as ~2 fold. In the assay on T. gondii [2], the “parasite vacuoles showing P34- and Hsp90c (tachyzoite phenotype)” value is on record as “about 75%”. The “P21 positive and SAG1 negative parasites” value with T. gondii bradyzoites (4 hours post-infection, all parasites (GA and DMSO), Me49 bradyzoites incubated 2 hours) was “more than 90%”. The “parasites exhibiting Hsp90c” value in the assay with T. gondii bradyzoites (24 hours post-infection) is given as 100%. In the assay on T. gondii bradyzoites (setting [3]), the SAG1 positive parasites result is recorded as “less than 5%” and the “parasites remaining P21 positive” value was “more than 90%”. In the assay with T. gondii bradyzoites (setting [4]), the “bradyzoites showing Hsp90c staining” value is on record as 80% and the “bradyzoites showing Hsp90n,c staining pattern” value turned out to be 20%. The “reduction of level of invasion compared with DMSO treated parasites” value in the assay with T. gondii bradyzoites (bradyzoites treated with GA) is recorded as 40-66%.
